# Where two headings read alike, the source gives them in different places. Marks after values point to notes of the source that are not given here.
# Key:
# HLA-B*58:01 [1] = target: T1, HLA-B*58:01 (Homo sapiens, UniProt P01889, A329T/C349S/D201E/D98Y/E176V/E187L/E204Q/E69T/G107R/I218V/I90N/K202T/L105A/L119I/N104I/N87E/Q89R/Q94S/R106L/R155S/R180L/R86G/S101N/S121R/S35A/S48A/T118I/V127L/V306I/V36M/Y140S/Y91M); type: binding
# HLA-A*24:02 [2] = target: T2, HLA-A*24:02 (Homo sapiens, UniProt P04439, D101N/D140Y/D185E/E176V/E190D/F33S/G103R/G107R/I119L/I121M/I306V/K335N/L105A/L180Q/L300P/N151K/N90K/Q86E/Q94H/R106L/R138H/R89G/T104I/T345S/V100E/W191G/Y123F); settings: percent relative the binding of a positive control peptide; […]; cited from earlier work
# HLA-B*58:01 [3] = target: T1, HLA-B*58:01; type: binding; settings: percent relative the binding of positive control peptide […]; duplicated experiments; positive binder >40%
# HLA-A*24:02 [4] = target: T2, HLA-A*24:02; settings: cited from earlier work
# HLA-A*30:01 [5] = target: T3, HLA-A*30:01 (Homo sapiens, UniProt P04439, D140H/D185E/E176W/F33S/G80R/H175R/K168Q/R138E/R41S); settings: cited from earlier work
# HLA-A*30:02 [6] = target: T4, HLA-A*30:02 (Homo sapiens, UniProt P04439, D101N/D140H/D185E/E176R/F33S/G80R/H175R/K168Q/Q94H/R138E/R41S/V100E); settings: cited from earlier work
# HLA-B*07:02 [7] = target: T5, HLA-B*07:02 (Homo sapiens, UniProt P01889); settings: cited from earlier work
# HLA-A*24:02 [8] = target: T2, HLA-A*24:02; settings: cited from earlier work; remark: listed apart in the source
# HLA-B*07:02 [9] = target: T5, HLA-B*07:02; settings: cited from earlier work; remark: listed apart in the source
# HLA-B*07:02 [10] = target: T5, HLA-B*07:02; settings: cited from earlier work; remark: listed apart in the source
# HLA-C*07:01 [11] = target: T6, HLA-C*07:01 (Homo sapiens, UniProt P10321, K90N/S123Y); assay: affinity assay (ED50); type: binding
# HLA-C*07:01 [12] = target: T6, HLA-C*07:01; type: binding; settings: percent relative the binding of positive control peptide […]; duplicated experiments; positive binder >40%
# HLA-A*30:02 [13] = target: T4, HLA-A*30:02; settings: cited from earlier work; remark: listed apart in the source
# HLA-A*30:01 [14] = target: T3, HLA-A*30:01; settings: cited from earlier work; remark: listed apart in the source
# HLA-B*58:01 [15] = target: T1, HLA-B*58:01; type: binding; settings: time points 0-8 h
# HLA-A*02:01 [16] = target: T7, HLA-A*02:01 (Homo sapiens, UniProt P04439, D140Y/D185E/D98H/E176V/E277Q/G131W/G231S/I119V/I121R/I166T/I218V/L300P/L318F/N151K/N90K/P208A/P217A/Q86G/Q94H/R138H/R169H/T345S); settings: cited from earlier work
# HLA-A*68:01 = HLA-A*68:01 (Homo sapiens, UniProt P04439, A269V/D185E/E176V/E277Q/E87N/F33Y/G231S/I121M/I166T/I218V/L180W/L300P/L318F/N151K/P208A/P217A/Q86R/R169H/T345S); type: binding; settings: percent relative the binding of positive control peptide […]; duplicated experiments; positive binder >40%
# HLA-A*02:01 [17] = target: T7, HLA-A*02:01; settings: cited from earlier work; remark: listed apart in the source
# HLA-A*02:01 [18] = target: T7, HLA-A*02:01; settings: cited from earlier work; remark: listed apart in the source
# HLA-A*30:02 [19] = target: T4, HLA-A*30:02; settings: cited from earlier work; remark: listed apart in the source
# HLA-A*30:01 [20] = target: T3, HLA-A*30:01; settings: cited from earlier work; remark: listed apart in the source
# HLA-C*07:01 [21] = target: T6, HLA-C*07:01; assay: off-rate assay (t1/2); type: binding; settings: time points 0-8 h
# [22] = percent relative the binding of a positive control peptide, […]
Sequence,Aff B*58:01 (ED50) (HLA-B*58:01 [1]) [nM],Bind A*24:02 (HLA-A*24:02 [2]),Bind B*58:01 (HLA-B*58:01 [3]) [%],O-rate A*24:02 (t1/2) (HLA-A*24:02 [4]) [h],Aff A*30:01 (ED50) (HLA-A*30:01 [5]) [nM],O-rate A*30:02 (t1/2) (HLA-A*30:02 [6]) [h],O-rate B*07:02 (t1/2) (HLA-B*07:02 [7]) [h],Aff A*24:02 (ED50) (HLA-A*24:02 [8]) [nM],Bind B*07:02 (HLA-B*07:02 [9]; [22]),Aff B*07:02 (ED50) (HLA-B*07:02 [10]) [nM],Aff C*07:01 (ED50) (HLA-C*07:01 [11]) [nM],Bind C*07:01 (HLA-C*07:01 [12]) [%],Aff A*30:02 (ED50) (HLA-A*30:02 [13]) [nM],O-rate A*30:01 (t1/2) (HLA-A*30:01 [14]) [h],O-rate B*58:01 (t1/2) (HLA-B*58:01 [15]) [h],Aff A*02:01 (ED50) (HLA-A*02:01 [16]) [nM],O-rate A*02:01 (t1/2) (HLA-A*02:01 [17]) [h],O-rate C*07:01 (t1/2) (HLA-C*07:01 [21]) [h],Bind A*30:02 (HLA-A*30:02 [19]; [22]),also measured
IMYNYPAML [Rv0288_4–12],200,107* percent,110,1.6,5000,3.1,1.6,100,35* percent,30000,200,67,8,0.5,1.0,800,26.9,0.2,–,Bind A*68:01 (HLA-A*68:01): 0%; Bind A*02:01 (HLA-A*02:01 [18]; [22]): 94* percent; Bind A*30:02 (HLA-A*30:02 [19]): 91** percent; Bind A*30:01 (HLA-A*30:01 [20]; [22]): 146** percent
QIMYNYPAM [Rv0288_3–11wt],10000,55* percent,34,0.1,4000,1.1,1.5,1000,–,800000,–,–,40,0.8,0.4,1000,1.1,–,90** percent,Bind B*07:02 (HLA-B*07:02 [9]): 28* percent; Bind A*02:01 (HLA-A*02:01 [18]): 68* percent; Bind A*30:01 (HLA-A*30:01 [20]): 163** percent
RAYHAMSST [Rv0288_67–75wt],10000,–,39,–,–,1.2,0.8,–,39* percent,20000,10000,35,1000,–,0.2,–,–,0.2,73** percent,–

# From paper PMC3608651, “A Broad Profile of Co-Dominant Epitopes Shapes the Peripheral Mycobacterium tuberculosis Specific CD8+ T-Cell Immune Response in South African Patients with Active Tuberculosis” (PLoS ONE, 2013)
